Source: ChEMBL document CHEMBL1153982, “Synthesis and evaluation of 2,7-diamino-thiazolo[4,5-d] pyrimidine analogues as anti-tumor epidermal growth factor receptor (EGFR) tyrosine kinase inhibitors” (Bioorg Med Chem Lett, 2009)
Converted amounts (≈) assume the structure as drawn.

What was measured:
[1] = Metabolic stability to human liver microsomes assessed as half life; assay type: ADME, Microsome
[2] = Solubility in aqueous buffer at pH 2.0; assay type: physicochemical
[3] = Solubility in aqueous buffer at pH 7.4; assay type: physicochemical
[4] = molecular target: Epidermal growth factor receptor (Homo sapiens, UniProt P00533)
[5] = Oral bioavailability in rat at 10 mg/kg; assay type: ADME, organism-based; details: in vivo
[6] = Cmax in rat at 10 mg/kg; assay type: ADME, organism-based; set-up: dose 10 mg/kg; details: in vivo
[7] = AUC in rat at 10 mg/kg; assay type: ADME, organism-based; set-up: dose 10 mg/kg; details: plasma
[8] = Half life in rat at 10 mg/kg; assay type: ADME, organism-based; set-up: dose 10 mg/kg; details: in vivo
[9] = Oral bioavailability in mouse at 10 mg/kg; assay type: ADME, organism-based; details: in vivo, read-out: ED15
[10] = Cmax in mouse at 10 mg/kg; assay type: ADME, organism-based; set-up: dose 10 mg/kg; details: in vivo
[11] = AUC in mouse at 10 mg/kg; assay type: ADME, organism-based; set-up: dose 10 mg/kg; details: plasma
[12] = Half life in mouse at 10 mg/kg; assay type: ADME, organism-based; set-up: dose 10 mg/kg; details: in vivo
[13] = molecular target: Cyclin-dependent kinase 1 (Homo sapiens, UniProt P06493); assay: Inhibition of CDK1
Chain of Cyclin-dependent kinase 1 (P06493 whole entry): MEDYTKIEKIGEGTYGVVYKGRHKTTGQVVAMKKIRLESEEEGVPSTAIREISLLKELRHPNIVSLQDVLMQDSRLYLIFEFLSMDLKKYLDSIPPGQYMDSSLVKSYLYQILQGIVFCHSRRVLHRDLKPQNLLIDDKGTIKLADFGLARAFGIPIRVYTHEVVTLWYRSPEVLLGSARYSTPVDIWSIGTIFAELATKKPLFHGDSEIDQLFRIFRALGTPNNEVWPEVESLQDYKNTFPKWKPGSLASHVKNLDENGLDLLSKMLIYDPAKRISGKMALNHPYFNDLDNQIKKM

Chain of Epidermal growth factor receptor (P00533 whole entry): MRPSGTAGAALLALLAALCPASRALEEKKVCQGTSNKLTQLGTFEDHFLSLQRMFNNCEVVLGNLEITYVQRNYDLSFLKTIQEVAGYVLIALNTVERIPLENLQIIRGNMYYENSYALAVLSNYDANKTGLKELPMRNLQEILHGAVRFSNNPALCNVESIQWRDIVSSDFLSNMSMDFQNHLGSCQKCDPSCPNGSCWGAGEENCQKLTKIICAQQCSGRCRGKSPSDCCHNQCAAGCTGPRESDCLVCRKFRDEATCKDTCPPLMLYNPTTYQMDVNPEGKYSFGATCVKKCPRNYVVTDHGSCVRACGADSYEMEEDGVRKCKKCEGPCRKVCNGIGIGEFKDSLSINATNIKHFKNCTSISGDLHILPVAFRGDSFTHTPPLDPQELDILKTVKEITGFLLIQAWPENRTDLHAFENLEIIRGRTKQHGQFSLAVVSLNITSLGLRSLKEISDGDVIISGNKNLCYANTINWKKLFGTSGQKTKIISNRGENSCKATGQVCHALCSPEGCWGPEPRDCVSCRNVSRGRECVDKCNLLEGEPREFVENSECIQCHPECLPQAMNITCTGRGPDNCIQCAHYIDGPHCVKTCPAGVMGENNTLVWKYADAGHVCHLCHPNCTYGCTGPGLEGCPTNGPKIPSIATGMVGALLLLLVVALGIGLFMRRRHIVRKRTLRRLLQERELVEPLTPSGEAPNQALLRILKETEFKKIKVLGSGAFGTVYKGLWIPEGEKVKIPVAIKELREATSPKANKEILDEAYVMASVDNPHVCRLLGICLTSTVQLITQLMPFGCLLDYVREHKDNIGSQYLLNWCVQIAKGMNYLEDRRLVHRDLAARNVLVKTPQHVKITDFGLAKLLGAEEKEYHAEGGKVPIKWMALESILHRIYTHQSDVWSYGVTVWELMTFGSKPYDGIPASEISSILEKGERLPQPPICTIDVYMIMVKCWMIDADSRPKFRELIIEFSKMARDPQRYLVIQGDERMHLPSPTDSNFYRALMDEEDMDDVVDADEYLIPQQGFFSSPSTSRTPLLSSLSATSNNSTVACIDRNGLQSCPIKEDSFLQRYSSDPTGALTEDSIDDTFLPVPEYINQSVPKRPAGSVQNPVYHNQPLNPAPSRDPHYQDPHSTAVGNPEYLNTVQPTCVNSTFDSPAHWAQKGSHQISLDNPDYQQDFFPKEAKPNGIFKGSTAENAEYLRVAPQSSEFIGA

CCc1nccn1Cc1ccc(Nc2nc3ncnc(Nc4ccc(F)c(Cl)c4)c3s2)cc1
half-life [1]: 0.05 h | solubility [2]: 300 µg/mL (≈ 625 µM) | solubility [3]: < 0.2 µg/mL | IC50 [4]: 6 nM

NS(=O)(=O)c1ccc(Nc2nc3ncnc(Nc4cccc(Cl)c4)c3s2)cc1
half-life [1]: > 1.67 h | solubility [2]: < 0.2 µg/mL | solubility [3]: < 0.2 µg/mL | bioavailability [5]: 0.8% | Cmax [6]: 39 ng/mL | AUC [7]: 224 ng·h/mL | IC50 [4]: 7 nM

NS(=O)(=O)c1ccc(Nc2nc3ncnc(Nc4cccc(Br)c4)c3s2)cc1
IC50 [4]: 10 nM

NS(=O)(=O)c1ccc(Nc2nc3ncnc(Nc4ccc(N5CCOCC5)c(Cl)c4)c3s2)cc1
IC50 [4]: 3300 nM

Fc1ccc(Nc2ncnc3nc(Nc4ccc(CCN5CCOCC5)cc4)sc23)cc1Cl
half-life [1]: 0.183 h | solubility [2]: 290 µg/mL (≈ 598 µM) | solubility [3]: < 0.2 µg/mL | bioavailability [5]: 13% | Cmax [6]: 289 ng/mL | AUC [7]: 1170 ng·h/mL | half-life [8]: 1.8 h | IC50 [4]: 15 nM

Fc1ccc(Nc2ncnc3nc(Nc4ccc(CN5CCOCC5)cc4)sc23)cc1Cl
half-life [1]: 0.317 h | solubility [2]: > 1000 µg/mL | solubility [3]: 1 µg/mL (≈ 2.12 µM) | bioavailability [5]: 20% | Cmax [6]: 527 ng/mL | AUC [7]: 2150 ng·h/mL | half-life [8]: 1.88 h | bioavailability [9]: 67% | Cmax [10]: 3850 ng/mL | AUC [11]: 10800 ng·h/mL | half-life [12]: 2.9 h | IC50 [4]: 12 nM

OC[C@@H]1CCCN1Cc1ccc(Nc2nc3ncnc(Nc4ccc(F)c(Cl)c4)c3s2)cc1
half-life [1]: > 1.67 h | solubility [2]: 360 µg/mL (≈ 742 µM) | solubility [3]: < 0.2 µg/mL | bioavailability [5]: 0.3% | Cmax [6]: 2.4 ng/mL | AUC [7]: 24 ng·h/mL

CN1CCN(Cc2ccc(Nc3nc4ncnc(Nc5ccc(OCc6cccc(F)c6)c(Cl)c5)c4s3)cc2)CC1
IC50 [4]: 9 nM

COCCN(CCOC)S(=O)(=O)c1ccc(Nc2nc3ncnc(Nc4ccc(F)c(Cl)c4)c3s2)cc1
IC50 [4]: 25 nM

NS(=O)(=O)c1ccc(Nc2nc3ncnc(Nc4c(F)cccc4F)c3s2)cc1
IC50 [13]: 19800 nM

CN(C)Cc1ccc(Nc2nc3ncnc(Nc4ccc(F)c(Cl)c4)c3s2)cc1
half-life [1]: > 1.67 h | solubility [2]: 390 µg/mL (≈ 909 µM) | solubility [3]: 27 µg/mL (≈ 62.9 µM) | bioavailability [5]: 9% | Cmax [6]: 54 ng/mL | AUC [7]: 322 ng·h/mL | half-life [8]: 3.2 h

N#Cc1cnc2nc(Nc3ccc(CN4CCOCC4)cc3)sc2c1Nc1ccc(F)c(Cl)c1
half-life [1]: 0.217 h | solubility [2]: 37 µg/mL (≈ 74.8 µM) | solubility [3]: < 0.2 µg/mL | bioavailability [5]: 10.8% | Cmax [6]: 28 ng/mL | AUC [7]: 184 ng·h/mL | half-life [8]: 4.9 h

C#Cc1cccc(Nc2ncnc3nc(Nc4ccc(CN5CCOCC5)cc4)sc23)c1
IC50 [4]: 43 nM

Fc1ccc(Nc2ncnc3nc(Nc4ccc(CN5CCCC5)cc4)sc23)cc1Cl
IC50 [4]: 4 nM

Fc1ccc(Nc2ncnc3nc(Nc4ccc(CN5CCCCC5)cc4)sc23)cc1Cl
IC50 [4]: 10 nM
